The text below walks through data of PubChem BioAssay (NCI).

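In this assay, cells in 96-well plates receive the compound at five concentrations for 48 hours. Endpoints are linearly interpolated between the surrounding concentrations. Here, GI50 denotes the concentration required for 50% inhibition of growth. The concentration for full growth arrest is given as TGI.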

Among the test systems are IGROV1 ovarian; HT29 colon; HL-60(TB) leukemia; ACHN renal; HOP-92 NSCLC; CAKI-1 renal; MCF7 breast; SK-MEL-28 melanoma.
Holding throughout (assay): growth of human tumour cells (NCI), 48 h

Regarding `CC(NNC(=S)N1CCCCCC1)c1ccc2ccccc2n1` (stereo unspecified), the GI50 in the experiment with IGROV1 ovarian is 1.85 µM; with HT29 colon it was 2.54 µM; in the experiment on HL-60(TB) leukemia, 0.363 µM; in the experiment with ACHN renal it was 0.66 µM; in the experiment on HOP-92 NSCLC it was 0.769 µM; in the experiment on CAKI-1 renal it was 0.456 µM. For the same compound, the values for the GI50 in the experiment with MCF7 breast and in the experiment on SK-MEL-28 melanoma were 0.338 µM and 5.18 µM, respectively. Further, the TGI with IGROV1 ovarian amounted to 51.3 µM; in the experiment on HT29 colon, 31.1 µM; in the experiment on HL-60(TB) leukemia it was 12.1 µM; in the experiment with ACHN renal, 14.6 µM; in the experiment on HOP-92 NSCLC, 34.3 µM; in the experiment on CAKI-1 renal, 10.8 µM. For the same compound, the TGI with MCF7 breast is 15.2 µM; in the experiment on SK-MEL-28 melanoma, 40.4 µM.

For the compound `COc1cc2c(/C=C3/C(=O)Nc4ccccc43)c(Cl)n(Cc3ccccc3[N+](=O)[O-])c2cc1C`, the GI50 in the experiment with IGROV1 ovarian was 7.46 µM; in the experiment on HT29 colon, 1.93 µM; with HL-60(TB) leukemia, 4.78 µM; in the experiment with ACHN renal it was 4.95 µM; in the experiment with HOP-92 NSCLC, 7.25 µM; with CAKI-1 renal it was 6.39 µM. Moreover, the GI50 is 5.46 µM in the experiment with MCF7 breast and 3.47 µM in the experiment on SK-MEL-28 melanoma. Moreover, the TGI with IGROV1 ovarian was more than 100 µM; in the experiment on HT29 colon, 24.4 µM; in the experiment with HL-60(TB) leukemia, more than 100 µM; in the experiment with ACHN renal it was 19.6 µM; in the experiment on HOP-92 NSCLC, 26.8 µM; in the experiment with CAKI-1 renal, 23.3 µM. The TGI with MCF7 breast was more than 100 µM; with SK-MEL-28 melanoma, 12.4 µM.

For the compound `Cc1ccc2c(N)c(C(=O)N[C@H]3CCc4cc(N5CC6CCC(C5)N6)ccc4C3)sc2n1`, the GI50 with IGROV1 ovarian is 0.348 µM; in the experiment on HT29 colon it was 0.257 µM; with HL-60(TB) leukemia it was 0.172 µM; in the experiment on ACHN renal, 0.158 µM; with HOP-92 NSCLC, 0.642 µM; with CAKI-1 renal, 0.357 µM. The GI50 in the experiment on MCF7 breast is 0.283 µM; in the experiment on SK-MEL-28 melanoma it was 0.586 µM. Besides, the TGI in the experiment with IGROV1 ovarian was 2.72 µM; with HT29 colon it was 3.22 µM; in the experiment on HL-60(TB) leukemia it was 1.31 µM; with ACHN renal it was 2.01 µM; in the experiment with HOP-92 NSCLC it was 4.08 µM; with CAKI-1 renal, 2.96 µM. Further, the TGI was 2.43 µM in the experiment on MCF7 breast and 2.81 µM in the experiment on SK-MEL-28 melanoma.

`Cc1ccc2c(=O)c3cccc(CC(=O)O)c3oc2c1C`: the GI50 in the experiment with IGROV1 ovarian, with HT29 colon, in the experiment on HL-60(TB) leukemia, in the experiment with ACHN renal, in the experiment on HOP-92 NSCLC and in the experiment on CAKI-1 renal was more than 100 µM in each case. The GI50 with MCF7 breast and in the experiment on SK-MEL-28 melanoma was more than 100 µM in each case. Also, the TGI with IGROV1 ovarian, with HT29 colon, with HL-60(TB) leukemia, in the experiment on ACHN renal, in the experiment with HOP-92 NSCLC and in the experiment with CAKI-1 renal was more than 100 µM throughout. The TGI with MCF7 breast and with SK-MEL-28 melanoma was more than 100 µM in each case.

On to `CCOC(=O)Oc1c(OC)cc(C(=O)O[C@@H]2C[C@@H]3CN4CCc5c([nH]c6cc(OC)ccc56)[C@H]4C[C@@H]3[C@H](C(=O)OC)[C@H]2OC)cc1OC`, for which the GI50 was 9.58 µM in the experiment on IGROV1 ovarian; 2.32 µM in the experiment with HT29 colon; 3.64 µM in the experiment on HL-60(TB) leukemia; 4.16 µM in the experiment on ACHN renal; 3.64 µM with HOP-92 NSCLC; 13.9 µM in the experiment with CAKI-1 renal. The GI50 with MCF7 breast was 4.13 µM; with SK-MEL-28 melanoma it was 6.32 µM. Besides, the TGI stood at 39.2 µM with IGROV1 ovarian; 5.92 µM in the experiment with HT29 colon; 15.1 µM in the experiment with HL-60(TB) leukemia; 21.7 µM with ACHN renal; 18.9 µM in the experiment on HOP-92 NSCLC; 48.1 µM in the experiment on CAKI-1 renal. Further, the figures for the TGI in the experiment on MCF7 breast and in the experiment with SK-MEL-28 melanoma were 17.3 µM and 18.8 µM, respectively.

On to `C=C1C(=O)O[C@H]2[C@H]1CC/C(Cn1cc(-c3ccccc3)nn1)=C\CC[C@@]1(C)O[C@@H]21`, for which the GI50 is 6.95 µM in the experiment with IGROV1 ovarian; 1.79 µM with HT29 colon; 1.49 µM in the experiment on HL-60(TB) leukemia; 0.941 µM in the experiment with ACHN renal; 1.42 µM in the experiment on HOP-92 NSCLC; 1.28 µM in the experiment with CAKI-1 renal. Besides, the GI50 in the experiment on MCF7 breast was 1.08 µM; in the experiment on SK-MEL-28 melanoma it was 1.06 µM. The TGI with IGROV1 ovarian is 14.9 µM; in the experiment on HT29 colon, 6.3 µM; in the experiment on HL-60(TB) leukemia, 5.64 µM; in the experiment with ACHN renal, 2.46 µM; with HOP-92 NSCLC, 3.6 µM; with CAKI-1 renal, 4.83 µM. Further, the TGI in the experiment with MCF7 breast amounted to 3.32 µM; with SK-MEL-28 melanoma it was 2.48 µM.

On to `COc1ccc(-c2nc(-c3cn(C)c4ncccc34)cs2)cc1`, for which the GI50 in the experiment with IGROV1 ovarian was more than 100 µM; in the experiment on HT29 colon, 17.3 µM; with HL-60(TB) leukemia, 9.11 µM; with ACHN renal it was 91.7 µM; with HOP-92 NSCLC it was 2.02 µM; with CAKI-1 renal, 18.2 µM. The GI50 in the experiment with MCF7 breast is 12.5 µM; with SK-MEL-28 melanoma it was 79.3 µM. The TGI was more than 100 µM with IGROV1 ovarian; more than 100 µM in the experiment with HT29 colon; more than 100 µM in the experiment on HL-60(TB) leukemia; more than 100 µM with ACHN renal; 55.9 µM in the experiment with HOP-92 NSCLC; more than 100 µM in the experiment on CAKI-1 renal. Moreover, the TGI with MCF7 breast and in the experiment with SK-MEL-28 melanoma was more than 100 µM throughout.

In the case of `O=C(NOCC1CC1)c1ccc(F)c(F)c1Nc1ccc(I)cc1Cl`, the GI50 is 1.05 µM with IGROV1 ovarian; 0.112 µM with HT29 colon; 0.19 µM with HL-60(TB) leukemia; 1.13 µM in the experiment with ACHN renal; 0.0927 µM in the experiment with HOP-92 NSCLC; 2.75 µM in the experiment on CAKI-1 renal. For the same compound, the results for the GI50 in the experiment on MCF7 breast and in the experiment with SK-MEL-28 melanoma were 3.11 µM and 0.0526 µM, respectively. Besides, the TGI in the experiment with IGROV1 ovarian was 5.77 µM; in the experiment on HT29 colon, 11.1 µM; in the experiment with HL-60(TB) leukemia, 8.26 µM; in the experiment on ACHN renal, more than 39 µM; in the experiment with HOP-92 NSCLC, 1.18 µM; in the experiment with CAKI-1 renal, more than 100 µM. The results for the TGI in the experiment with MCF7 breast and in the experiment on SK-MEL-28 melanoma were 19.1 µM and 0.812 µM, respectively.

For the compound `C=C1C(=O)OC2CC3(CO3)C3C(O)C(O)CC3(C)CC12` (stereo unspecified), the TGI with IGROV1 ovarian was more than 100 µM; in the experiment on HT29 colon, more than 100 µM; with HL-60(TB) leukemia, 44.6 µM; in the experiment with ACHN renal it was 35.5 µM; in the experiment with HOP-92 NSCLC, 50.7 µM; in the experiment with CAKI-1 renal, 36.6 µM. In addition, the TGI in the experiment with MCF7 breast was 62.1 µM; with SK-MEL-28 melanoma, 34.8 µM.
